Results reported in patent US8592426B2, “Aryl-benzocycloalkyl amide derivatives” (Hoffmann—La Roche Inc., priority 2011, dated 2013).

Columns and labels:
Bradykinin-1 receptor [1] = target: T1, Bradykinin-1 receptor (Homo sapiens (Human), UniProt P46663); test: Receptor binding assay (B1R Binding Assay), [3H]-Kallidin (Des Arg10, Leu9) displacement; conditions: membranes from CHO-K1 cells overexpressing Bradykinin-1 receptor; 6 nM radioligand
Protocol: Binding assays were done with membranes from CHO-K1 cells overexpressing Bradykinin-1 receptor.
To determine non-specific binding 10 μM Lys-(Des-Arg^9)-Bradykinin (Bachem) was added. Membranes were harvested through GF/B (glass fiber filter; PerkinElmer) plates, equilibrated with 0.5% polyethylenimine, air dried at 50° C. for 2 h. Radioactivity was determined by counting in a topcounter (NXT Packard).

Bradykinin-1 receptor [2] = target: T1, Bradykinin-1 receptor; test: Calcium mobilization assay (FLIPR, Fluo-4) in GeneBLAzer Bradykinin (B1)-NFAT-bla CHO-K1 cells; assay type: cell-based; conditions: antagonist activity; CHO-K1 cells stably overexpressing the human bradykinin 1 receptor; read-out: Ca mobilization Assay IC50
Protocol: Calcium Mobilization Assay
GeneBLAzer® Bradykinin (B1)-NFAT-bla CHO-K1 cells (from Invitrogen) stably overexpressing the human bradykinin 1 receptor were cultured in DMEM (high glucose) supplemented with 10% dialysed FBS, 1% NEAA (non essential amino acids) 1% penicillin/streptomycin, 1% G418 and 0.1 mg/ml zeocin.
For the assay cells were grown overnight in 384-well black clear flat bottom polystyrene plates (Costar) at 37° C. at 5% CO2. After washing with DMEM, 20 mM Hepes, 2.5 mM probenecid, 0.1% BSA (DMEM assay buffer) cells were loaded with 4 μM Fluo-4 in the same DMEM assay buffer for 2 hours at 30° C. Excess dye was removed and cells were washed with DMEM assay buffer. 384-well compound plates were prepared with DMEM assay buffer/0.5% DMSO with or without various concentrations of test compounds. Usually compounds were tested for agonist and antagonist activity.
Test compounds were added to the assay plate and agonist activity was monitored as fluorescence for 80 seconds with a FLIPR (488 nm excitation; 510-570 nm emission; Molecular Devices). After 20-30 min. of incubation at 30° C., 20 nM […] (R&D; Roche) was added and fluorescence was monitored again for 80 seconds. Increases in intracellular calcium are reported as maximum fluorescence after agonist exposure minus basal fluorescence before exposure.

T1 sequence (P46663 whole entry): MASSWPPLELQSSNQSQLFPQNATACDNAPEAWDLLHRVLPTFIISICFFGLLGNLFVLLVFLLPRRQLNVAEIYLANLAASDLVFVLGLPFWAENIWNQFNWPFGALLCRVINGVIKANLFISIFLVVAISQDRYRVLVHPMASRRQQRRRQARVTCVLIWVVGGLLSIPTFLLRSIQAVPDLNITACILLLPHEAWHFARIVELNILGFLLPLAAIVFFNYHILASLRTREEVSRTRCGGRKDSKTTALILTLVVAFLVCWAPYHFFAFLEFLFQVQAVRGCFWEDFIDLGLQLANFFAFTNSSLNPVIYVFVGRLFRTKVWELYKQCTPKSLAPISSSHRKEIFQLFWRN

SMILES	Ki (Bradykinin-1 receptor [1])	IC50 (Bradykinin-1 receptor [2])
Cc1nc(-c2c(F)cc(Cl)cc2-c2cnc3c(c2)CCC3NC(=O)C2(NC(=O)c3ccnnc3)CC2)no1 (racemic) [Example 39, Pyridazine-4-carboxylic acid(1-{(rac) 3-[5-chloro-3-fluoro-2-(5-methyl-[1,2,4]oxadiazol-3-yl)-phenyl]-6,7-dihydro-5H-[1]pyrindin-7-ylcarbamoyl}-cyclopropyl)-amide]	7.5 nM	0.6 nM
Cn1nnc(-c2c(F)cc(Cl)cc2-c2cnc3c(c2)CCC3NC(=O)C2(N)CC2)n1 (racemic) [Example 55, 1-Amino-cyclopropanecarboxylic acid{(rac)-3-[5-chloro-3-fluoro-2-(2-methyl-2H-tetrazol-5-yl)-phenyl]-6,7-dihydro-5H-[1]pyrindin-7-yl}-amide]	211 nM	61.1 nM
COc1cc(C(=O)NC2(C(=O)NC3COc4cc(-c5cc(Cl)cc(F)c5-c5noc(C)n5)ccc43)CC2)on1 (racemic) [Example 48, 3-Methoxy-isoxazole-5-carboxylic acid(1-{(rac)-6-[5-chloro-3-fluoro-2-(5-methyl-[1,2,4]oxadiazol-3-yl)-phenyl]-2,3-dihydro-benzofuran-3-ylcarbamoyl}-cyclopropyl)-amide]	23.8 nM	4 nM
COc1ncc(C(=O)NC2(C(=O)N[C@H]3CCc4cc(-c5cc(Cl)cc(F)c5-c5noc(C)n5)ccc43)CC2)cn1 [Example 26, 2-Methoxy-pyrimidine-5-carboxylic acid(1-{(S)-5-[5-chloro-3-fluoro-2-(5-methyl-[1,2,4]oxadiazol-3-yl)-phenyl]-indan-1-ylcarbamoyl}-cyclopropyl)-amide]	2.6 nM	0.2 nM
Cc1nc(-c2c(F)cc(Cl)cc2-c2ccc3c(c2)OCC3NC(=O)C2(NC(=O)c3ccnnc3)CC2)no1 (racemic) [Example 46, Pyridazine-4-carboxylic acid(1-{(rac)-6-[5-chloro-3-fluoro-2-(5-methyl-[1,2,4]oxadiazol-3-yl)-phenyl]-2,3-dihydro-benzofuran-3-ylcarbamoyl}-cyclopropyl)-amide]	19.1 nM	4.7 nM
Cc1nc(-c2c(F)cc(Cl)cc2-c2cnc3c(c2)CCC3NC(=O)C2(NC(=O)c3ccnnc3)CC2)no1 (single isomer, unassigned) [Example 41, Pyridazine-4-carboxylic acid(1-{(S or R) 3-[5-chloro-3-fluoro-2-(5-methyl-[1,2,4]oxadiazol-3-yl)-phenyl]-6,7-dihydro-5H-[1]pyrindin-7-ylcarbamoyl}-cyclopropyl)-amide]	4 nM	0.2 nM
Cc1nc(-c2c(F)cc(Cl)cc2-c2ccc3c(c2)OCCC3NC(=O)C2(NC(=O)C(F)(F)F)CC2)no1 (racemic) [Example 14, 1-(2,2,2-Trifluoro-acetylamino)-cyclopropanecarboxylic acid{(rac)-7-[5-chloro-3-fluoro-2-(5-methyl-[1,2,4]oxadiazol-3-yl)-phenyl]-chroman-4-yl}-amide]	212 nM	24.8 nM
Cc1nc(-c2c(F)cc(Cl)cc2-c2cnc3c(c2)CCC3NC(=O)C2(NC(=O)C(F)(F)F)CC2)no1 (racemic) [Example 12, 1-(2,2,2-Trifluoro-acetylamino)-cyclopropanecarboxylic acid{(rac)-3-[5-chloro-3-fluoro-2-(5-methyl-[1,2,4]oxadiazol-3-yl)-phenyl]-6,7-dihydro-5H-[1]pyrindin-7-yl}-amide]	4.4 nM	0.5 nM
Cc1nc(-c2c(F)cc(Cl)cc2-c2ccc3c(c2)OCC3NC(=O)C2(NC(=O)C(F)(F)F)CC2)no1 (racemic) [Example 19, 1-(2,2,2-Trifluoro-acetylamino)-cyclopropanecarboxylic acid{(rac)-6-[5-chloro-3-fluoro-2-(5-methyl-[1,2,4]oxadiazol-3-yl)-phenyl]-2,3-dihydro-benzofuran-3-yl}-amide]	33.3 nM	4.5 nM
COc1ncc(C(=O)NC2(C(=O)NC3CCc4cc(-c5cc(Cl)cc(F)c5-c5nnn(C)n5)cnc43)CC2)cn1 (racemic) [Example 56, 2-Methoxy-pyrimidine-5-carboxylic acid(1-{(rac)-3-[5-chloro-3-fluoro-2-(2-methyl-2H-tetrazol-5-yl)-phenyl]-6,7-dihydro-5H-[1]pyrindin-7-ylcarbamoyl}-cyclopropyl)-amide]	4.5 nM	0.2 nM
Cc1cc(C(=O)NC2(C(=O)NC3CCc4cc(-c5cc(Cl)cc(F)c5-c5nnn(C)n5)cnc43)CC2)on1 (racemic) [Example 58, 3-Methyl-isoxazole-5-carboxylic acid(1-{(rac)-3-[5-chloro-3-fluoro-2-(2-methyl-2H-tetrazol-5-yl)-phenyl]-6,7-dihydro-5H-[1]pyrindin-7-ylcarbamoyl}-cyclopropyl)-amide]	6.3 nM	0.4 nM
Cc1nc(-c2c(F)cc(Cl)cc2-c2cc(F)c3c(c2)CCC3NC(=O)C2(NC(=O)C(F)(F)F)CC2)no1 (racemic) [Example 16, 1-(2,2,2-Trifluoro-acetylamino)-cyclopropanecarboxylic acid{(rac)-5-[5-chloro-3-fluoro-2-(5-methyl-[1,2,4]oxadiazol-3-yl)-phenyl]-7-fluoro-indan-1-yl}-amide]	11 nM	0.5 nM
Cn1nnc(-c2c(F)cc(Cl)cc2-c2ccc3c(c2)OCCC3NC(=O)C2(NC(=O)C(F)(F)F)CC2)n1 (racemic) [Example 15, 1-(2,2,2-Trifluoro-acetylamino)-cyclopropanecarboxylic acid{(rac)-7-[5-chloro-3-fluoro-2-(2-methyl-2H-tetrazol-5-yl)-phenyl]-chroman-4-yl}-amide]	170 nM	24.6 nM
COc1ncc(C(=O)NC2(C(=O)NC3CCc4cc(-c5cc(Cl)cc(F)c5-c5noc(C)n5)cc(F)c43)CC2)cn1 (racemic) [Example 33, 2-Methoxy-pyrimidine-5-carboxylic acid(1-{(rac)-5-[5-chloro-3-fluoro-2-(5-methyl-[1,2,4]oxadiazol-3-yl)-phenyl]-7-fluoro-indan-1-ylcarbamoyl}-cyclopropyl)-amide]	18.9 nM	0.5 nM
Cc1nc(-c2c(F)cc(Cl)cc2-c2ccc3c(c2)CC[C@@H]3NC(=O)C2(NC(=O)c3cncnc3)CC2)no1 [Example 25, Pyrimidine-5-carboxylic acid(1-{(S)-5-[5-chloro-3-fluoro-2-(5-methyl-[1,2,4]oxadiazol-3-yl)-phenyl]-indan-1-ylcarbamoyl}-cyclopropyl)-amide]	3.1 nM	0.1 nM
Cc1nc(-c2c(F)cc(Cl)cc2-c2ccc3c(c2)CC[C@@H]3NC(=O)C2(NC(=O)c3ccnnc3)CC2)no1 [Example 27, Pyridazine-4-carboxylic acid(1-{(S)-5-[5-chloro-3-fluoro-2-(5-methyl-[1,2,4]oxadiazol-3-yl)-phenyl]-indan-1-ylcarbamoyl}-cyclopropyl)-amide]	3.6 nM	0.4 nM
Cc1nc(-c2c(F)cc(Cl)cc2-c2cnc3c(c2)CCC3NC(=O)C2(NC(=O)OC(C)(C)C)CC2)no1 (racemic) [Example 36, (1-{(rac)-3-[5-Chloro-3-fluoro-2-(5-methyl-[1,2,4]oxadiazol-3-yl)-phenyl]-6,7-dihydro-5H-[1]pyrindin-7-ylcarbamoyl}-cyclopropyl)-carbamic acid tert-butyl ester]	361 nM	3.6 nM
